Data: PubChem BioAssay AID602168 (The Scripps Research Institute Molecular Screening Center, 2012)
Activity calls are given as the source filed them. No rule for the calls is given here.

The compounds below were run against Nuclear receptor coactivator 1 (Homo sapiens) (UniProt Q15788) (assay: SRC1 coactivator transcriptional activity inhibitors, dose response, counter-screen for SRC3 inhibitor project, cell-based, luminescence (AID 602168)). Details: Cell-based SRC1 luciferase reporter.
Sequence of Nuclear receptor coactivator 1 (Homo sapiens) (Q15788 whole entry, looked up): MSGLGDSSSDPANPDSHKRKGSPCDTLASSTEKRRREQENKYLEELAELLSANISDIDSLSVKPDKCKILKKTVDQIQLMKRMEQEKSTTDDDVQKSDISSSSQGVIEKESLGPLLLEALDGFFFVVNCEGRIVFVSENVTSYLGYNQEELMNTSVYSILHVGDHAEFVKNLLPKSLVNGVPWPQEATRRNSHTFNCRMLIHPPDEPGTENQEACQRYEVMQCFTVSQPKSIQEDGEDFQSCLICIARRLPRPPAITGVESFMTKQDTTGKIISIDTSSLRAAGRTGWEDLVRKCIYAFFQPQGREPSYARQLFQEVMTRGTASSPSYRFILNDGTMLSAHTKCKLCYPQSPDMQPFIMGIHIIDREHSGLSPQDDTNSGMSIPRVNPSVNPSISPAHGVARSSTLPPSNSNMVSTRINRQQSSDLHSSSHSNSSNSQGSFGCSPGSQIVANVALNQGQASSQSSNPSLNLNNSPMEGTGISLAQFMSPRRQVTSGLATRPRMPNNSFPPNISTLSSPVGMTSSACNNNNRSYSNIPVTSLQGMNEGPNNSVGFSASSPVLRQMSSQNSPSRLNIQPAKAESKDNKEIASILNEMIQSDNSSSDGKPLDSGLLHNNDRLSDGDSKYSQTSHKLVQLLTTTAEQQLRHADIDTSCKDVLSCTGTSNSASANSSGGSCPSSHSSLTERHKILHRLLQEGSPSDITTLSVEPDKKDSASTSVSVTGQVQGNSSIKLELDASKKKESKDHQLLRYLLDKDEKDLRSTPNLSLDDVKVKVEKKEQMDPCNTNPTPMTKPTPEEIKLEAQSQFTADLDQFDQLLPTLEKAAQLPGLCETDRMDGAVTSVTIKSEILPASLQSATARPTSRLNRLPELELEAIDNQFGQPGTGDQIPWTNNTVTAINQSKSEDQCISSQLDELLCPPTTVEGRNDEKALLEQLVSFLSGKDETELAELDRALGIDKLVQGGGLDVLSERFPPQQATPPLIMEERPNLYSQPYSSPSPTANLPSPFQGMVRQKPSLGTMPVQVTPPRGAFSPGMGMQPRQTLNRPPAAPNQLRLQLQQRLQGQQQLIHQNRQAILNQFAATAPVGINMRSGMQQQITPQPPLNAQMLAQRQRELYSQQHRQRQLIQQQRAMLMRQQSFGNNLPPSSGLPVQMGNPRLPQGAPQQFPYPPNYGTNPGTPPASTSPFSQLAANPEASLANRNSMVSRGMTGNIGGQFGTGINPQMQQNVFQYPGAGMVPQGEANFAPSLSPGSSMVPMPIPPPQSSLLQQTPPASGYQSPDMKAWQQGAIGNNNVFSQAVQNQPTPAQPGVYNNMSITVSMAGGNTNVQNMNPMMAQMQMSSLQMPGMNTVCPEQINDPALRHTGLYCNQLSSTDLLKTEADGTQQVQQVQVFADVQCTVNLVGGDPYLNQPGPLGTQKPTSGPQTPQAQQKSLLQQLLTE
`O=S(=O)(/C(=C\c1ccc(C(F)(F)F)cc1)c1nc2ccccc2[nH]1)c1ccccc1` was tested, and the IC50 was > 12 µM (inactive).
For `CO[C@@]12[C@@H]3N[C@@H]3CN1C1=C(C(=O)C(N)=C(C)C1=O)[C@@H]2COC(N)=O`, the IC50 was > 35.8 µM (inactive).
With `Cc1ccc2occ(/C=N/NC(=O)c3ccccc3Br)c(=O)c2c1` the IC50 was > 35.9 µM (inactive).
`CCC(=O)N1CCN(c2ccnc3cc(Cl)ccc23)CC1` was tested, and the IC50 was “inactive”.
With `CCCCN1C=CC(=C2C(=O)c3ccccc3C2=O)C=C1` the IC50 was > 35.9 µM (inactive).
With `CC(C)(C)C(=O)Nc1ccc(N=Nc2ccccc2)cc1` the IC50 was > 35.9 µM (inactive).
`COc1ccccc1N(C(=O)CCl)c1cn(C(C)=O)c2ccccc12` was tested, and the IC50 was > 35.9 µM (inactive).
`O=C(N/N=C/c1cc(Br)c(Br)s1)c1ccncc1` was tested, and the IC50 was “inactive”.
In the case of `Cc1cccc(C)c1NS(=O)(=O)c1ccc(-c2cnc(C3CC3)o2)cc1`, the IC50 is reported as “inactive”.
In the case of `CCc1ccc(/C=C2\SC(=S)N(CCCC(=O)NCCCN3CCOCC3)C2=O)cc1`, the IC50 is reported as “inactive”.
`CCn1c2ccccc2c2cnc(N=CN(C)C)c(C#N)c21` was tested, and the IC50 was “inactive”.
Work on `COc1cc2oc(=O)cc(-c3ccc(-c4ccc(CO)cc4)cc3)c2c(OC)c1OC` yielded an IC50 of 8.05 µM.
For `CC(=O)c1cccc(NC(=O)Nc2ccc3c(c2)N(C)C(=O)CS3)c1`, the IC50 was “inactive”.
In the case of `C(=Cc1cnc2ccccc2n1)c1ccc2c(c1)OCO2`, the IC50 is reported as “inactive”.
For `CCn1ccnc1CN(C)Cc1cn[nH]c1-c1ccc(OC)c(F)c1`, the IC50 was 9.9 µM.
For `CN[C@H]1CCc2cc(OC)c(OC)c(OC)c2-c2ccc(OC)c(=O)cc21`, the IC50 was > 35.9 µM (inactive).
`CC(=O)c1ccc(Nc2c3c(nc4ccccc24)CCCC3)cc1` was tested, and the IC50 was > 35.9 µM (inactive).
For `COc1cc(C(=O)N/N=C(\c2ccccc2)c2ccccn2)cc(OC)c1OC`, the IC50 was > 12 µM (inactive).
For `O=C(CCCc1nc(-c2ccccc2Cl)no1)NC1CCCC1`, the IC50 was “inactive”.
`O=C(OCCC12CC3CC(CC(C3)C1)C2)c1ccc(NCc2cc(O)ccc2O)cc1` was tested, and the IC50 was “inactive”.
With `COC(=O)c1c(C)n(-c2ccc(OC)cc2)c2ccc(O)cc12` the IC50 was 8.12 µM.
For `CN1CCN(c2ccc(NC(=O)N3CCc4ccccc43)cc2)CC1`, the IC50 was > 35.9 µM (inactive).
In the case of `Brc1ccc2ncc3ccccc3c2c1`, the IC50 is reported as “inactive”.
With `CC(=O)c1cccc(-c2csc3ncnc(Sc4nnnn4C)c23)c1` the IC50 was > 35.9 µM (inactive).
Compound `COc1ccc(-c2cn[nH]c2-c2ccc(OC)cc2O)cc1` has an IC50 of 8.83 µM.
With `COc1ccc(/C=C2\CC/C(=C\c3ccc(OC)c(OC)c3)C2=O)cc1OC` the IC50 was > 35.9 µM (inactive).
In the case of `Cc1cccc(Oc2sc(C(=O)c3ccccc3)c(N)c2C#N)c1`, the IC50 is reported as “inactive”.
`CCCc1c(C)nc2ccccc2c1SCCC#N` gave an IC50 of 9.45 µM.
With `COc1ccc(/C=C2/SC(=S)N(CCC(=O)O)C2=O)cc1` the IC50 was > 35.9 µM (inactive).
`CC(=O)Nc1ccc(SCC(=O)c2cc(C)n(-c3ccccc3)c2C)cc1` was tested, and the IC50 was > 35.9 µM (inactive).
In the case of `O=[N+]([O-])c1cccc2c1ccc1ncccc12`, the IC50 is reported as “inactive”.
`COc1cccc(NC(=O)CSc2nnc(-c3cc(C)n(-c4ccccc4)c3C)o2)c1` was tested, and the IC50 was > 35.9 µM (inactive).
With `COc1ccc(Nc2ccncc2[N+](=O)[O-])cc1` the IC50 was 9.17 µM.
In the case of `CC[C@@]1(O)C(=O)OCc2c1cc1n(c2=O)Cc2cc3c(NC(=O)CN)cccc3nc2-1`, the IC50 is reported as 3.78 µM.
`C=CCn1c(O)c(C(C)=NCc2cc(OC)cc(OC)c2)c(=O)[nH]c1=O` was tested, and the IC50 was > 35.9 µM (inactive).
With `O=C(Nc1ccc(OCC(=O)N2CCOCC2)cc1)c1cncc(Br)c1` the IC50 was “inactive”.
With `Cc1ccc(N=Nc2ccc3ccccc3c2O)cc1` the IC50 was > 35.9 µM (inactive).
In the case of `NC(=O)c1sc2nc3c(c(-c4ccco4)c2c1N)CCC3`, the IC50 is reported as 3.29 µM.
`C(=NNc1ccc2ccccc2n1)c1ccccn1` was tested, and the IC50 was > 35.9 µM (inactive).
For `COC(CN(C(=O)CCl)C(C(=O)NC1CCCCC1)c1ccccc1C)OC` (stereo not given), the IC50 was “inactive”.
Work on `Cc1c(CC(=O)NCCCC(=O)O)c(=O)oc2cc3c(cc12)CCC(C)(C)O3` yielded an IC50 of 9.04 µM.
With `Cc1c(Cl)cccc1NC(=O)Nc1ccccc1C(N)=O` the IC50 was > 35.9 µM (inactive).
With `c1csc(Cc2nn3c(-c4ccncc4)nnc3s2)c1` the IC50 was “inactive”.
With `Cc1cc(C(=O)COC(=O)C2=COCCO2)c(C)n1-c1ccccc1` the IC50 was “inactive”.
In the case of `Cc1ccc(/C=C2/SC(=S)N(CCCC(=O)Nc3ccc(O)cc3)C2=O)cc1`, the IC50 is reported as > 35.9 µM (inactive).
With `CCOc1cc(/C=C2\CCC/C(=C\c3cc(Cl)c(O)c(OCC)c3)C2=O)cc(Cl)c1O` the IC50 was > 35.8 µM (inactive).
With `COc1cccc(/C=N/Nc2cc(-n3nc(C)cc3-c3ccccc3)ncn2)c1O` the IC50 was “inactive”.
In the case of `COc1cccc(-c2nnc3sc(C4CCCCC4)nn23)c1`, the IC50 is reported as 3.46 µM.
`CCOc1ccc(Nc2cc(C)nc(-n3nc(C)cc3C)n2)cc1` was tested, and the IC50 was > 35.9 µM (inactive).
For `C=CS(=O)(=O)N(Cc1ccc(Cl)c(Cl)c1)C[C@@H](O)CO`, the IC50 was > 35.8 µM (inactive).
For `O=C(NCCc1ccccc1)c1ccc2c(c1)OCCO2`, the IC50 was “inactive”.
`COc1ccc(OC)c(N/C=C/C(=O)c2ccccc2)c1` was tested, and the IC50 was “inactive”.
With `Cc1cc(/C=C2\Cc3ccccc3C2=O)c(C)n1-c1ccccc1` the IC50 was “inactive”.
In the case of `N#Cc1c2ccc(O)cc2n2ccccc12`, the IC50 is reported as “inactive”.
In the case of `CCCC(=O)NC(c1ccc2c(c1)OCO2)c1cc(Cl)c2cccnc2c1O` (stereo not given), the IC50 is reported as 7.24 µM.
In the case of `COc1ccc2[nH]c(=O)c(CN(CCN3CCCC3)C(=O)Nc3ccccc3Cl)cc2c1`, the IC50 is reported as “inactive”.
In the case of `Cc1nc2c(-c3ccc(Cl)cc3)cnn2c(N)c1-c1ccc(F)cc1`, the IC50 is reported as > 35.9 µM (inactive).
`C=CCOn1c(C)c(C(C)=O)c2c3nonc3ccc21` gave an IC50 of 9.06 µM.
With `Cc1ccc(-n2c(C)cc(C(=O)COc3cccnc3[N+](=O)[O-])c2C)cc1` the IC50 was > 35.9 µM (inactive).
With `COc1ccc(C(C(=O)NC2CCCCC2)N(C(=O)CCl)c2ccc(OC)cc2)cc1` (stereo not given) the IC50 was “inactive”.
In the case of `Clc1ccc(-c2csc3ncnc(NCCN4CCOCC4)c23)cc1`, the IC50 is reported as “inactive”.
In the case of `O=C(CCl)N1N=C(c2ccco2)CC1c1ccco1` (stereo not given), the IC50 is reported as > 35.9 µM (inactive).
In the case of `Cc1cc2nccc(-c3ccncc3)n2n1`, the IC50 is reported as “inactive”.
In the case of `CS(=O)(=O)c1ccc(Sc2nc3ccccc3s2)c([N+](=O)[O-])c1`, the IC50 is reported as > 35.9 µM (inactive).
With `CCN(c1cccc(C)c1)c1ncnc2nc[nH]c12` the IC50 was “inactive”.
`CNC(=O)c1cccn(Cc2ccc(C(F)(F)F)cc2)c1=O` was tested, and the IC50 was > 35.8 µM (inactive).
In the case of `CC(=O)Nc1ccc(SCC(=O)c2cc(C)n(-c3ccccc3F)c2C)cc1`, the IC50 is reported as > 12 µM (inactive).
`Cc1nc([N+](=O)[O-])c(Sc2nc3ccccc3n2C)n1Cc1ccccc1` was tested, and the IC50 was > 35.9 µM (inactive).
`O=C(COc1ccc(Cl)cc1)Nc1ccc(C(=O)NCc2cccnc2)cc1` showed an IC50 of 9.27 µM.
`COCCNC(=O)c1cc(-c2ccccn2)nc2ccc(S(=O)(=O)N3CCC(C)CC3)cc12` was tested, and the IC50 was > 35.9 µM (inactive).
`O=c1[nH]c2ccccc2n1C1CCN(C(c2cccc3ccccc23)c2nnnn2-c2ccc3c(c2)OCCO3)CC1` (stereo not given) was tested, and the IC50 was “inactive”.
With `O=C(Nc1nc2ccccc2s1)C1c2ccccc2Oc2ccccc21` the IC50 was “inactive”.
In the case of `Cc1cccc2sc(NNC(=O)c3ccc(S(=O)(=O)N4CC(C)CC(C)C4)cc3)nc12` (stereo not given), the IC50 is reported as 4.52 µM.
For `COc1ccc(/C=C2\CN(Cc3ccccc3)C/C(=C\c3ccc(OC)c(O)c3)C2=O)cc1O`, the IC50 was > 35.9 µM (inactive).
In the case of `O=C(NCc1ccccc1)c1c(Cl)nc(Cl)c(Cl)c1Cl`, the IC50 is reported as > 35.9 µM (inactive).
For `Nc1nc2c(nnn2C2CC(O)C(CO)O2)c(=O)[nH]1` (stereo not given), the IC50 was > 35.9 µM (inactive).
`Nc1ncccc1C(=O)OCC(=O)N1CCN(S(=O)(=O)c2ccc(Cl)cc2)CC1` was tested, and the IC50 was “inactive”.
`CC(C)(C)c1ccc(Oc2ccc(N)cn2)cc1` was tested, and the IC50 was “inactive”.
With `Cc1ccc2nc(-c3ccncc3)c(NC3CCCC3)n2c1` the IC50 was “inactive”.
`CCCC(=O)NC(c1ccc(Cl)cc1Cl)c1ccc2cccnc2c1O` (stereo not given) showed an IC50 of 6.03 µM.
In the case of `COc1cc(C(=O)OCC(=O)Nc2sccc2C(N)=O)cc(OC)c1OC`, the IC50 is reported as > 35.9 µM (inactive).
With `O=C(CC1CS(=O)(=O)CC1CC(=O)Nc1ccc2c(c1)OCCO2)Nc1ccc2c(c1)OCCO2` (stereo not given) the IC50 was > 35.9 µM (inactive).
`COc1cc(/C=N/NC(N)=S)cc(Br)c1OCc1ccccc1F` was tested, and the IC50 was “inactive”.
`COc1ccc(OC)c(Cc2cnc3nc(N)nc(N)c3c2C)c1` was tested, and the IC50 was > 35.9 µM (inactive).
In the case of `CS(=O)c1nc(-c2ccc(Br)cc2)cc(-c2ccccc2)c1C#N` (stereo not given), the IC50 is reported as “inactive”.
In the case of `COc1cccc(/C=N/Nc2ccc([N+](=O)[O-])cn2)c1O`, the IC50 is reported as > 35.9 µM (inactive).
`Cc1ccc(/C=C2\SC(=S)N(CCCC(=O)NC3CCCC3)C2=O)cc1` gave an IC50 of 3.26 µM.
For `Cc1ccc(NC(=O)c2cc(C)n(-c3ccccc3)c2C)cc1`, the IC50 was > 35.9 µM (inactive).
`CCOc1ccc(CC(=O)Nc2ccc(NC(=O)c3ccco3)cc2)cc1OCC` showed an IC50 of 4.28 µM.
With `Cc1cc(-c2nnc(SCC(=O)Nc3ccccc3C(F)(F)F)o2)c(C)n1-c1ccccc1` the IC50 was > 35.9 µM (inactive).
With `Cc1ccc2nc(C(F)(F)F)c(C#N)c(N)c2c1` the IC50 was “inactive”.
In the case of `O=C(NC(NC(=S)N1CCOCC1)C(Cl)(Cl)Cl)c1ccc(Cl)cc1` (stereo not given), the IC50 is reported as “inactive”.
`c1cc2[nH]snc2c2nc(C3CC3)nc12` was tested, and the IC50 was “inactive”.
In the case of `COc1cccc(F)c1C(C[N+](=O)[O-])c1c(N)n(C)c(=O)n(C)c1=O` (stereo not given), the IC50 is reported as “inactive”.
In the case of `CCOc1ccc(/C=C2\SC(=S)N(CCCC(=O)NCCCN3CCOCC3)C2=O)cc1`, the IC50 is reported as > 35.9 µM (inactive).
For `NC(=S)N/N=C1\CCOc2ccc(Cl)cc21`, the IC50 was > 35.9 µM (inactive).
For `Nc1ncnc(NCc2ccccc2)c1[N+](=O)[O-]`, the IC50 was “inactive”.
For `CCc1ccc(-c2nc(CSCC(=O)NCc3ccco3)c(C)o2)cc1`, the IC50 was > 35.9 µM (inactive).
In the case of `Cc1cc(C(=O)CN2C(=O)c3ccccc3S2(=O)=O)c(C)n1C(C)C`, the IC50 is reported as “inactive”.
For `CN(C)S(=O)(=O)c1ccc(N2CCN(S(=O)(=O)c3ccc(F)cc3)CC2)c(Cl)c1`, the IC50 was “inactive”.
With `O=C(CCl)N(c1ccccc1)C1CCCCC1` the IC50 was “inactive”.
In the case of `CCOc1cc(C(N)=O)cc(Br)c1OC`, the IC50 is reported as “inactive”.
Work on `O=[N+]([O-])c1nn(-c2ccc3c(c2)OCCO3)n(O)c1=Nc1ccccc1` yielded an IC50 of 0.812 µM.
`O=C(Nc1cccnc1)c1ccc(C(=O)Nc2cccnc2)cc1` was tested, and the IC50 was > 35.9 µM (inactive).
In the case of `COc1cccc(CNc2ncnc3ccc(-c4c(C)noc4C)cc23)c1`, the IC50 is reported as > 35.9 µM (inactive).
